In US20260232661A1, “Compositions and Uses Thereof” (Purposeful IKE, priority 2020, published 2026):
Values joined by “and” are separate entries in the source; they are usually repeats but may differ in a detail not shown here. Identical values can stand only once.

Assays:
Type in all cases: in vivo
[1] = tested on: Fmr1 KO mice; assay: Hyponeophagia test (anxiety); conditions: for Significant? WT-V vs. treated KO (Hyponeophagia) / Significant? KO-V vs. treated KO (Hyponeophagia): alpha 0.05; for Significant? KO-V vs. treated KO (Hyponeophagia): doses as E36; for Mean Diff., WT-V vs. treated KO (Hyponeophagia): KO mice, mg/kg: Sumatriptan 20, Oxitriptan 40, Ergoloid 4, Ergoloid 2+Sumatriptan 10, Ergoloid 2+Oxitriptan 40
Procedure: (§1) Fmr1 KO mice backcrossed to the FVB strain and WT littermates were used during experiments. TransnetXY Automated Genotyping (www.transnetyx.com/). TRANSNETYX, INC., 8110 Cordova Rd. Suite 119, Cordova, TN 38016, USA was used for genotyping. The animals were pretreated for 14 days. The active ingredients of Sumatriptan and Ergoloid were in a water carrier, whereas oxitriptan was in a methanol carrier.
(§2) The mice were housed in plastic cages (35×30×12 cm), 5 in each. The room temperature (21±2° C.), relative humidity (55±5%), a 12-h light-dark cycle (lights on 7 a.m.-7 p.m.) and air exchange (16 times per h) were automatically controlled. The animals had free access to commercial food pellets and water. Testing was conducted during the light phase. Ten mice per treatment group were used for the AGS experiments. Experiments were conducted in line with the requirements of the UK Animals (Scientific Procedures) Act, 1986.
(§3) All experiments were conducted with the experimenter blind to genotype and drug treatment. Separate investigators prepared and coded dosing solutions, allocated the mice to the study treatment groups, dosed the animals, and collected the Audiogenic Seizure data.
(§4) Behavior testing was conducted at 2 weeks. The behavioral tests were as follows: 1. Hyperactivity: Open field; 2. Stereotypy: Self-grooming; 3. Sociability: Three chamber partition test; 4. Memory and Learning: Novel Object Recognition; 5. Anxiety: hyponeophagia; and 6. Test of daily living: marble burying
For anxiety a hyponeophagia test was conducted. Mice and rats cannot vomit, due to the tightness of the cardiac sphincter of the stomach, so to overcome the problem of potential food toxicity they have evolved a strategy of first ingesting only very small amounts of novel substances. The amounts ingested then gradually increase until the animal has determined whether the substance is safe and nutritious. So the old rat-catchers would first put a palatable substance such as oatmeal, which was to be the vehicle for the toxin, in the infested area (Deacon 2011).
(§5) The treatment of the mice with OX (Oxitriptan), SU (Sumatriptan), ER (Ergoloid mesylates, also referred to as ergoloid herein) were according to the matrix shown below in Table 1.
(§6) The experimental procedures described above for Example 1 were used in the following tests, as well as the addition of two further behaviour tests as described below. An SSRI (selective serotonin re-uptake inhibitor) was co-dosed with the ergoloid mesylates and oxitriptan to assess the effect of the ergoloid mesylates and oxitriptan treatment on a subject already receiving SSRI treatment.
(§7) The treatment of the mice with OX (Oxitriptan), ER (Ergoloid mesylates) and FL (fluvoxamine) were according to the matrix shown below in Table 21. The triple combination involved dosing of 2 mg/kg ergoloid mesylates, 40 mg/kg oxitriptan and 40 mg/kg of fluvoxamine (the SSRI).

[2] = tested on: Fmr1 KO mice; assay: Self-grooming (stereotypy); conditions: Dunnett's test, alpha 0.05; doses as E31
Procedure: as §1, §2, §3
Behavior testing was conducted at 2 weeks. The behavioral tests were as follows: 1. Hyperactivity: Open field; 2. Stereotypy: Self-grooming; 3. […]
For stereotypy, self-grooming was assessed. […]

[3] = tested on: Fmr1 KO mice; assay: Open field test (hyperactivity); conditions: for Below threshold? WT-V vs. treated KO (Open Field) / Significant? KO-V vs. treated KO (Open Field): Dunnett's test, alpha 0.05; for Below threshold? WT-V vs. treated KO (Open Field): doses as E1; for Significant? KO-V vs. treated KO (Open Field): doses as E26
Procedure: as §1, §2, §3, §4
For hyperactivity, the open field test (OFT) is a common measure of exploratory behavior and general activity in both mice and rats, where both the quality and quantity of the activity can be measured. Principally, the open field (OF) is an enclosure, generally square, rectangular, or circular in shape with surrounding walls that prevent escape. The OFT is also commonly used as a mechanism to assess the sedative, toxic, or stimulant effects of compounds (Gould 2009).
as §5, §6, §7

[4] = tested on: Fmr1 KO mice; assay: Novel Object Recognition (memory and learning); design: Mean Diff., N_WT-V vs. treated KO (NOR) / Mean 2, treated KO group (NOR) / Mean Diff., F_KO-V vs. F_KO treated (NOR) / Mean Diff., F_KO-V vs. N_KO treated (NOR) / Mean 2, F_KO treated group (NOR) / Mean 2, N_KO treated group (NOR): unit not given here; conditions: for Significant? F_KO-V vs. F_KO treated (NOR) / Significant? F_KO-V vs. N_KO treated (NOR) / Significant? N_WT-V vs. treated KO (NOR): alpha 0.05; for Significant? F_KO-V vs. F_KO treated (NOR) / Summary, F_KO-V vs. F_KO treated (NOR) / Mean 2, F_KO treated group (NOR): doses as E46
Procedure: as §1, §2, §3, §4
For memory and learning, a novel object recognition (NOR) task was used to evaluate the rodents' ability to recognize a novel object in the environment. […] The task procedure consists of three phases: habituation, familiarization, and test phase (Antunes 2012).
(§8) The treatment of the mice with OX (Oxitriptan), SU (Sumatriptan), ER (Ergoloid mesylates, also referred to as ergoloid herein) were according to the matrix shown below in Table 1. […]

[5] = tested on: Fmr1 KO mice; assay: Test of daily living (nesting; marble burying); conditions: for Significant? WT-V vs. treated KO (Test of daily living) / Significant? KO-V vs. treated KO (Test of daily living) / Summary, WT-V vs. treated KO (Test of daily living): Dunnett's test; for Significant? WT-V vs. treated KO (Test of daily living) / Significant? KO-V vs. treated KO (Test of daily living): alpha 0.05; for Mean Diff., WT-V vs. treated KO (Test of daily living): mg/kg: Sumatriptan 20, Oxitriptan 40, Ergoloid 4, Ergoloid 2+Sumatriptan 10, Ergoloid 2+Oxitriptan 40
Procedure: as §1, §2, §3, §4
For test of daily living, nesting was assessed as nest building is an innate behavior in rodents, even when raised in laboratory settings. Synthetic and/or natural materials (such as twine, tissue, cotton, paper, and hay) are provided as a gauge of their overall well-being and as an ancillary assessment to predict the possible decline in cognition. Typically, changes in nesting behaviors, such as failure to create a nest, indicate a change in health or welfare. In addition, nesting behavior is sensitive to many environmental and physiological challenges, as well as many genetic mutations underlying pathological disease states (Gaskill 2013).
as §5, §6, §7

[6] = tested on: Fmr1 KO mice; assay: Three chamber partition test (sociability); design: Mean Diff., N_WT-V vs. treated KO (Sociability) / Mean 2, treated KO group (Sociability) / Mean Diff., F_KO-V vs. F_KO treated (Sociability) / Mean Diff., F_KO-V vs. N_KO treated (Sociability) / Mean 2, F_KO treated group (Sociability) / Mean 2, N KO treated group (Sociability) / Mean 2, N_KO treated group (Sociability) / Data table Sociability, F_KO-Sumatriptan / Data table Sociability, N_KO-Sumatriptan / Data table Sociability, F_KO-Oxitriptan: unit not given here; conditions: for Significant? F_KO-V vs. F_KO treated (Sociability) / Significant? F_KO-V vs. N_KO treated (Sociability) / Significant? N_WT-V vs. treated KO (Sociability) / Summary, N_WT-V vs. treated KO (Sociability): Dunnett's test; for Significant? F_KO-V vs. F_KO treated (Sociability) / Significant? F_KO-V vs. N_KO treated (Sociability) / Significant? N_WT-V vs. treated KO (Sociability): alpha 0.05; for Significant? F_KO-V vs. N_KO treated (Sociability) / Mean Diff., F_KO-V vs. N_KO treated (Sociability) / Mean Diff., N_WT-V vs. treated KO (Sociability): N_ groups; for Significant? N_WT-V vs. treated KO (Sociability) / Summary, N_WT-V vs. treated KO (Sociability) / Mean 2, treated KO group (Sociability): groups and doses as E21; for Mean Diff., F_KO-V vs. N_KO treated (Sociability): mg/kg: Sumatriptan 20, Oxitriptan 40, Ergoloid 4, Ergoloid 2+Oxitriptan 40; for Mean Diff., N_WT-V vs. treated KO (Sociability): mg/kg: Sumatriptan 20, Oxitriptan 40, Ergoloid 4, F_KO Ergoloid 2+Sumatriptan 10, N_KO Ergoloid 2+Oxitriptan 40; for Mean 2, treated KO group (Sociability): comparison against N_WT-V
Procedure: as §1, §2, §3, §4
For sociability a three chamber partition test was utilized. The three-chamber paradigm test known as Crawley's sociability and preference for social novelty protocol has previously been successfully employed to study social affiliation and social memory in several inbred and mutant mouse lines. The main principle of the test was based on the free choice by a subject mouse to spend time in any of three box's compartments during two experimental sessions, including indirect contact with one or two mice with which it was unfamiliar (Kaidanovich-Beilin 2011).
as §8

[7] = Dunnett's test, N_ groups, doses as E51
[8] = Dunnett's test, groups and doses as E16
[9] = comparison against KO-V, doses as E41
[10] = comparison against WT-V, doses as E11
[11] = comparison against F_KO-V, doses as E61
[12] = F_ groups, mg/kg: Sumatriptan 20, Oxitriptan 40, Ergoloid 4, Ergoloid 2+Oxitriptan 40 (Column M)
[13] = F_, KO mice, Sumatriptan 20 mg/kg, individual animals

Row | Compound | Significant? WT-V vs. treated KO (Hyponeophagia) ([1]; Dunnett's test, doses as E6) | Significant? KO-V vs. treated KO (Hyponeophagia) ([1]; Dunnett's test) | Mean Diff., WT-V vs. treated KO (Hyponeophagia) [1] | Significant? KO-V vs. treated KO (Stereotypy) [2] | Below threshold? WT-V vs. treated KO (Open Field) [3] | Significant? KO-V vs. treated KO (Open Field) [3] | Significant? F_KO-V vs. F_KO treated (NOR) ([4]; Dunnett's test, F_ groups) | Significant? F_KO-V vs. N_KO treated (NOR) [4, 7] | Significant? N_WT-V vs. treated KO (NOR) [4, 8] | Summary, F_KO-V vs. F_KO treated (NOR) ([4]; Dunnett's test, F_ groups) | Mean 2, F_KO treated group (NOR) ([4]; comparison against F_KO-V) | Significant? WT-V vs. treated KO (Test of daily living) ([5]; doses as E11) | Significant? KO-V vs. treated KO (Test of daily living) ([5]; doses as E41) | Summary, WT-V vs. treated KO (Test of daily living) ([5]; doses as E11) | Mean Diff., WT-V vs. treated KO (Test of daily living) ([5]; KO mice) | Mean 2, treated KO group (Test of daily living) [5, 9] | Mean 2, treated KO group (Test of daily living) [5, 10] | Significant? F_KO-V vs. F_KO treated (Sociability) ([6]; F_ groups, doses as E56) | Significant? F_KO-V vs. N_KO treated (Sociability) ([6]; doses as E61) | Significant? N_WT-V vs. treated KO (Sociability) [6] | other results
1 | N[C@@H](Cc1c[nH]c2ccc(O)cc12)C(=O)O [Oxitriptan] | No | Yes | −0.7000 | Yes | Yes | Yes | No | Yes | Yes | ns | 5.636 | No | Yes | ns | −0.1000 | 4.900 | 4.900 | Yes | Yes | No | Summary, WT-V vs. treated KO (Hyponeophagia) ([1]; Dunnett's test, doses as E6): ns; Mean Diff., WT-V vs. treated KO (Open Field) ([3]; KO mice, mg/kg: Sumatriptan 20, 5-HTP 80, EM 4, Ergoloid 2+Sumatriptan 10, Ergoloid 2+Oxitriptan 40): −512.4; Mean Diff., KO-V vs. treated KO (Test of daily living) ([5]; KO mice, mg/kg: Sumatriptan 20, Oxitriptan 40, Ergoloid 4, Ergoloid 2+Oxitriptan 40): −3.700; Summary, N_WT-V vs. treated KO (Sociability) [6]: ns; Data table Sociability, F_KO-Oxitriptan ([6]; F_, KO mice, Oxitriptan 40 mg/kg, individual animals): 51; Mean Diff., F_KO-V vs. N_KO treated (Sociability) [6]: −17.20; Mean Diff., N_WT-V vs. treated KO (Sociability) [6]: 0.3000; Mean 2, N_KO treated group (Sociability) [6, 11]: 95.80; Mean 2, treated KO group (Sociability) [6]: 98.80
2 | CNS(=O)(=O)Cc1ccc2[nH]cc(CCN(C)C)c2c1 [Sumatriptan] | Yes | Yes | −9.200 | Yes | Yes | Yes | No | No | Yes | ns | 5.800 | No | Yes | ns | 0.1000 | 4.700 | 4.700 | Yes | Yes | No | Mean Diff., KO-V vs. treated KO (Open Field) ([3]; KO mice, mg/kg: Sumatriptan 20, Oxitriptan 80, Ergoloid 4, Ergoloid 2+Oxitriptan 40): 846.8; Summary, F_KO-V vs. N_KO treated (NOR) [4, 7]: ns; Mean Diff., F_KO-V vs. F_KO treated (NOR) [4, 12]: −0.2000; Data table Novel Object Recognition, F_KO-Sumatriptan [4, 13]: 6; Mean Diff., F_KO-V vs. N_KO treated (NOR) ([4]; N_ groups, mg/kg: Sumatriptan 20, Oxitriptan 40, Ergoloid 4, Ergoloid 2+Oxitriptan 40): −0.7000; Mean Diff., N_WT-V vs. treated KO (NOR) ([4]; N_ groups, mg/kg: Sumatriptan 20, Oxitriptan 40, Ergoloid 4, F_KO Ergoloid 2+Sumatriptan 10, N_KO Ergoloid 2+Oxitriptan 40): 6.600; Mean 2, N_KO treated group (NOR) ([4]; comparison against F_KO-V, doses as E51): 7.300; Mean 2, treated KO group (NOR) ([4]; comparison against N_WT-V, groups and doses as E16): 7.300; Summary, N_WT-V vs. treated KO (Sociability) [6]: ns; Mean Diff., F_KO-V vs. F_KO treated (Sociability) [6, 12]: 19.40; Data table Sociability, F_KO-Sumatriptan [6, 13]: 61 (2×) and 64 and 65 (2×) and 60 (3×) and 63 (2×); Data table Sociability, N_KO-Sumatriptan ([6]; KO mice, Sumatriptan 20 mg/kg, individual animals): 99 and 97 (2×) and 103 and 98 and 90 and 102 and 100 and 95 and 101; Mean Diff., F_KO-V vs. N_KO treated (Sociability) [6]: −16.80; Mean Diff., N_WT-V vs. treated KO (Sociability) [6]: 0.9000; Mean 2, F_KO treated group (Sociability) ([6]; comparison against F_KO-V, doses as E56): 62.20; Mean 2, N KO treated group (Sociability) [6, 11]: 98.2; Mean 2, treated KO group (Sociability) [6]: 98.20
